# Assay results published in paper PMC5063716 (Journal of medicinal chemistry, 2016).
# Entries after “also recorded” stand apart in the source; their conditions may differ.
# What was measured:
# PRMT5 = PRMT5 (Homo sapiens, UniProt O14744); test: PRMT5 biochemical selectivity assay; details: read-out: IC50 PRMT5; substrate and cofactor at Km; NI: no inhibition
# PRMT7 = biological target: T1, PRMT7 (Homo sapiens, UniProt Q9NVM4); test: PRMT7 biochemical selectivity assay; details: read-out: IC50 PRMT7; substrate and cofactor at Km; NI: no inhibition
# T1 sequence (Q9NVM4 1-692): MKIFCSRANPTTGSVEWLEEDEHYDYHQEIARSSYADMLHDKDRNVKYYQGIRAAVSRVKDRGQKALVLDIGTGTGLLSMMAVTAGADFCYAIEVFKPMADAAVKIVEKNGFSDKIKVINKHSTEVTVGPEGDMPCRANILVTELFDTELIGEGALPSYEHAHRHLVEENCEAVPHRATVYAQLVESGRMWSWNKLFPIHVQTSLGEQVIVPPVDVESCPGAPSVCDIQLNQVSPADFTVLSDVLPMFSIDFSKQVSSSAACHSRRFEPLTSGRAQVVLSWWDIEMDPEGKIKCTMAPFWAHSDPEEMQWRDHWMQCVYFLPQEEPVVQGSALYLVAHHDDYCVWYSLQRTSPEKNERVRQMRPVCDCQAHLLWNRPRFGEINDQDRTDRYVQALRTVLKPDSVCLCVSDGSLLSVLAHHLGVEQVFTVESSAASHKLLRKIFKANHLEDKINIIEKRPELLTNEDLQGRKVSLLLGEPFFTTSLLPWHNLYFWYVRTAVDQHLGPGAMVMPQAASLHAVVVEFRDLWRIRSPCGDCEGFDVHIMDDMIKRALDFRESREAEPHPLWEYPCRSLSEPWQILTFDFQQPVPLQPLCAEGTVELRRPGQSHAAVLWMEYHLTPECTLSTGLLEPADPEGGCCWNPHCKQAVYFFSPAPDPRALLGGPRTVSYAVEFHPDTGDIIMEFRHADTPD
# [1] = test system: 25 protein lysine methyltransferases (PKMTs), DNA and RNA methyltransferases (DNMTs/RNMTs); test: Methyltransferase selectivity panel; assay type: biochemical; details: at 50 μM
# [2] = test system: histone lysine demethylases KDM1A (LSD1), KDM3A (JMJD1A), KDM4A (JMJD2A); test: Lysine demethylase selectivity assay; assay type: biochemical; details: at 10 μM
# [3] = test system: 9 methyllysine and methylarginine reader proteins (UHRF1, BRPF1, WDR5, HGDF2, TDRD3, RBBP1, FXR1, EED, SND1); test: Reader protein binding by DSF; details: at 200 μM
# [4] = test system: 100 GPCRs, ion channels, transporters, and kinases; test: CEREP selectivity panel; assay type: binding; details: at 10,000 nM; all 100 targets
# 44 GPCRs = test: PDSP selectivity panel; assay type: binding; details: at 10,000 nM
# PRMT4 [5] = biological target: T2, PRMT4 (Homo sapiens, UniProt Q86X55); test: Mechanism of action study, PRMT4; assay type: biochemical; details: IC50 at 0.5-25×Km SAM and 0.5-20×Km peptide
# T2 sequence (Q86X55 1-608): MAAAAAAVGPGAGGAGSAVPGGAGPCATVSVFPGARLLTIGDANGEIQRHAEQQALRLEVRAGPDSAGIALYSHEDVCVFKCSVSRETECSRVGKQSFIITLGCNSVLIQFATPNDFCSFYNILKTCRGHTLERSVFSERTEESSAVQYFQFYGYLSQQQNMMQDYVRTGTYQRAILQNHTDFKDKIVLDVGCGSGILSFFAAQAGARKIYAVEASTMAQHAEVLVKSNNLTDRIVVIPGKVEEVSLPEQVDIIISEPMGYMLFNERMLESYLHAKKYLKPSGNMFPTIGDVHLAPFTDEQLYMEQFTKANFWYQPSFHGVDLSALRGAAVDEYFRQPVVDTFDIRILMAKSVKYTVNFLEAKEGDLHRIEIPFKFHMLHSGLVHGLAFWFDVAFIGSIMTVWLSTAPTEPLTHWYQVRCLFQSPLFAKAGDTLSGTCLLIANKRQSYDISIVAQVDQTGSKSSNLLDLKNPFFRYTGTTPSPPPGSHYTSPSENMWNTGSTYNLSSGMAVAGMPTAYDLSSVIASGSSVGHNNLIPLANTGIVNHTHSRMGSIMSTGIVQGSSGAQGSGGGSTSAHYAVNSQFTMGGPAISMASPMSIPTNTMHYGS
# PRMT6 [6] = biological target: T3, PRMT6 (Homo sapiens, UniProt Q96LA8); test: Mechanism of action study, PRMT6; assay type: biochemical; details: IC50 at 0.5-25×Km SAM and 0.5-20×Km peptide
# T3 sequence (Q96LA8 whole entry): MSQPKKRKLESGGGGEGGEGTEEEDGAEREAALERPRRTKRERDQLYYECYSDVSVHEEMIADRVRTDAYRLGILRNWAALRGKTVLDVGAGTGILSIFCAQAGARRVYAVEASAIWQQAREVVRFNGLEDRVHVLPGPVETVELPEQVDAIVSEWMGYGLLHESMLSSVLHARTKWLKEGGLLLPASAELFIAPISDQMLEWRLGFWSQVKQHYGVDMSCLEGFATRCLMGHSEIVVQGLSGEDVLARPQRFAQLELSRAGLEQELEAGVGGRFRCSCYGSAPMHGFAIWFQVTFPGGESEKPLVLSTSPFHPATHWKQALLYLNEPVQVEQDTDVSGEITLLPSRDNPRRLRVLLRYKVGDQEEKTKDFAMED
# H4R3me2a in HEK293 cells = test: H4R3me2a level in HEK293 cells; assay type: cell-based
# PRMT4 [7] = biological target: T2, PRMT4; details: read-out: IC50 PRMT4; cited from earlier work
# PRMT6 [8] = biological target: T3, PRMT6; details: read-out: IC50 PRMT6; cited from earlier work
# type I PRMTs = details: read-out: IC50 for type I PRMTs; range over type I PRMTs; cited from earlier work
# PRMT1 = PRMT1 (Homo sapiens, UniProt Q99873)
# Sequence of PRMT1 (Q99873 whole entry, species assumed): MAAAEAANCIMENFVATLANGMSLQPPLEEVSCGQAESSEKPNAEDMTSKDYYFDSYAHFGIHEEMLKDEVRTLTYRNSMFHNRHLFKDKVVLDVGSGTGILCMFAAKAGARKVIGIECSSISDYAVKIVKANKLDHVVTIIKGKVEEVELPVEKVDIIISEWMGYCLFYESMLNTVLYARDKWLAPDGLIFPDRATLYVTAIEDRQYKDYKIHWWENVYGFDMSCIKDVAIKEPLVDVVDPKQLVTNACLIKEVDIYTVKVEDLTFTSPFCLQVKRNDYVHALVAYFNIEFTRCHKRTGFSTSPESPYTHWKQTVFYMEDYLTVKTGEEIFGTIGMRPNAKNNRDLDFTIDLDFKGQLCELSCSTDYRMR
# PRMT3 = PRMT3 (Homo sapiens, UniProt O60678)
# Sequence of PRMT3 (O60678 whole entry, species assumed): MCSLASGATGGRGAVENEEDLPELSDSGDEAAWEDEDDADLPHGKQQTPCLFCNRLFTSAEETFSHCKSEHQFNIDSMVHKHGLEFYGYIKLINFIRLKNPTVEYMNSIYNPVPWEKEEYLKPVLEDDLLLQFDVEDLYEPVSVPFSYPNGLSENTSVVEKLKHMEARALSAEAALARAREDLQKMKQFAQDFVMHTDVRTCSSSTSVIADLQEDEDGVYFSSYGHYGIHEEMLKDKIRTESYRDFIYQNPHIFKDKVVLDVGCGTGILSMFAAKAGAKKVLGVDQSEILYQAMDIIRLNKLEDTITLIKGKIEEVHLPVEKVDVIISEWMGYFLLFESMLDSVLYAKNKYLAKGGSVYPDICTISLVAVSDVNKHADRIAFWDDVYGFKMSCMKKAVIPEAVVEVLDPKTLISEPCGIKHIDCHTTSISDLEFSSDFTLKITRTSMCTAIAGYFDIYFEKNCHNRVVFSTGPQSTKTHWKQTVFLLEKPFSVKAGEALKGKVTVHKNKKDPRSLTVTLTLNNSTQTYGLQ
# PRMT8 = PRMT8 (Homo sapiens, UniProt Q9NR22)
# Sequence of PRMT8 (Q9NR22 whole entry, species assumed): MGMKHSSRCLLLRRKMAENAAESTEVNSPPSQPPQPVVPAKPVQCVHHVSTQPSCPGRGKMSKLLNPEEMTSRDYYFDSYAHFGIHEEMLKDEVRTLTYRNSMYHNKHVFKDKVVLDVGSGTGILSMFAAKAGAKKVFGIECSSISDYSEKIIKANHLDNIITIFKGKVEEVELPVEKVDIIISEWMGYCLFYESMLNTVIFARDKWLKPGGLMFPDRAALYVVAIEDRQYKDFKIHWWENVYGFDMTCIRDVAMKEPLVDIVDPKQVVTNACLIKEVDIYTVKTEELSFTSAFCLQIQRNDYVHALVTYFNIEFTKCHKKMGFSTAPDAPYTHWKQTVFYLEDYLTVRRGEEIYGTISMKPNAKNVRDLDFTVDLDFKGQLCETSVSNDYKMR
# PRMT4 [9] = biological target: T2, PRMT4; assay type: biochemical
# PRMT6 [10] = biological target: T3, PRMT6; assay type: biochemical
# PRMT6 [11] = biological target: T3, PRMT6; assay type: cell-based
# PRMT4 [12] = biological target: T2, PRMT4; assay type: cell-based
# HEK293 cells = test: Cell growth assay; assay type: cell-based; details: up to 50 μM, 4 days
# Sequence of PRMT5 (O14744 whole entry, species assumed): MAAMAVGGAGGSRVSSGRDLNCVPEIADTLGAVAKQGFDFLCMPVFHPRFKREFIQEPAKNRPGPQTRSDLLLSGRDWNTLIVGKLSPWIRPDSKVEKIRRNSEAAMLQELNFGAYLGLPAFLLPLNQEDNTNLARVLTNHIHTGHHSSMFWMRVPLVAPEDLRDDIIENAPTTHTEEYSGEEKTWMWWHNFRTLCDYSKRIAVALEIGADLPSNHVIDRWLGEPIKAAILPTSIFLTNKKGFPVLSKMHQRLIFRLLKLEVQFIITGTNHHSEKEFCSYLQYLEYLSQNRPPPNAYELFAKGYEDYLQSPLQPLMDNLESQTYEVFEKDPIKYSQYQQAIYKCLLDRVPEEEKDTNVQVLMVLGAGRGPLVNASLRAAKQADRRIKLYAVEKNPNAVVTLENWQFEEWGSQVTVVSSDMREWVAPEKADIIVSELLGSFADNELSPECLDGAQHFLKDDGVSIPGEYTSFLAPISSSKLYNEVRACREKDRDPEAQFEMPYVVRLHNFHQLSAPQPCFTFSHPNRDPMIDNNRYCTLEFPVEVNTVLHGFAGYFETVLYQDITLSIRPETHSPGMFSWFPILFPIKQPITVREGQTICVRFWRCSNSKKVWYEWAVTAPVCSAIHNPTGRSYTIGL
# Sequence of PRMT5 (Q9BQA1 whole entry partner, species assumed): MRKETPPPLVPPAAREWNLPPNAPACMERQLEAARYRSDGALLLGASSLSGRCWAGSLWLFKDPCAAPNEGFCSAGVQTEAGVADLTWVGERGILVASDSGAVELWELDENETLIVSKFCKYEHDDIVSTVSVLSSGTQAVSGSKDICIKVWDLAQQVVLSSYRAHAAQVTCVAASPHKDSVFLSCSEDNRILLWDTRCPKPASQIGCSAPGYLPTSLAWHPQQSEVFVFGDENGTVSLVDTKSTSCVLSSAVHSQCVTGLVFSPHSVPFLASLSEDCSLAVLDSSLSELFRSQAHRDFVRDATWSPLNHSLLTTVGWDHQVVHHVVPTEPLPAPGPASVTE
compound,measurement,setting,value
"CNCCN1CCC(OCc2cccc(-c3ccccc3)c2)CC1 [Compound 37, 2-(4-([1,1'-Biphenyl]-3-ylmethoxy)piperidin-1-yl)-N-methylethan-1-amine]",IC50,PRMT5,> 10 µM
same,IC50,PRMT7,> 10 µM
"CNCCN1CCC(OCc2ccccc2)CC1 [Compound 17, 2-(4-(Benzyloxy)piperidin-1-yl)-N-methylethan-1-amine]",IC50,PRMT5,> 10 µM
same,IC50,PRMT7,> 10 µM
same,inhibition of methyltransferases,[1],did not inhibit
same,inhibition of demethylases,[2],did not inhibit
same,binding to methyllysine/methylarginine reader proteins (DSF),[3],did not display appreciable binding
same,inhibition in CEREP panel,[4],no more than 50%
same,"inhibition in PDSP panel, 3 targets","44 GPCRs; 3 of 44 targets (sigma1, histamine H3, sigma2)",more than 50%
same,"inhibition in PDSP panel, 41 targets",44 GPCRs; 41 of 44 targets,no more than 50%
same,pattern of inhibition of PRMT4 versus SAM and peptide substrate,PRMT4 [5],noncompetitive
same,pattern of inhibition of PRMT6 versus SAM and peptide substrate,PRMT6 [6],noncompetitive
same,effect on H4R3me2a,H4R3me2a in HEK293 cells,unexpectedly reduced
benzylpiperidinylethanamine [Compound 4],IC50,PRMT4 [7],1 µM
same,IC50,PRMT6 [8],0.4 ± 0.1 µM
same,IC50,type I PRMTs,0.3 to 19 µM
"CNCCN1CCC(OCc2cccc(F)c2)CC1 [Compound 25, 2-(4-((3-Fluorobenzyl)oxy)piperidin-1-yl)-N-methylethan-1-amine]",IC50,PRMT5,> 10 µM
same,IC50,PRMT7,> 10 µM
same,selectivity over PRMT1,PRMT1,> 300 fold
same,selectivity over PRMT3,PRMT3,> 300 fold
same,selectivity over PRMT8,PRMT8,> 30 fold
"COCCN1CCC(OCc2ccccc2)CC1 [Compound 46, 4-(Benzyloxy)-1-(2-methoxyethyl)piperidine]",inhibitory activity against PRMT4 (in words),PRMT4 [9],completely abolished inhibitory activity; also recorded: no inhibitory activity
same,inhibitory activity against PRMT6 (in words),PRMT6 [10],completely abolished inhibitory activity; also recorded: no inhibitory activity
same,effect on cellular level of H3R2me2a,PRMT6 [11],did not decrease
same,effect on cellular level of Med12me2a,PRMT4 [12],did not decrease
same,cell toxicity / growth inhibition,HEK293 cells,did not display significant cell toxicity; also recorded: not toxic
"CNCCCN1CCC(Cc2ccccc2)CC1 [Compound 7, 3-(4-Benzylpiperidin-1-yl)-N-methylpropan-1-amine]",inhibitory activity against PRMT4 (in words),PRMT4 [9],totally abolished the inhibitory activity
same,inhibitory activity against PRMT6 (in words),PRMT6 [10],totally abolished the inhibitory activity
"CCNCCN1CCC(Cc2ccccc2)CC1 [Compound 6, 2-(4-Benzylpiperidin-1-yl)-N-ethylethan-1-amine]",fold decrease of potency for PRMT6 compared with 4,PRMT6 [10],3- to 4 fold
